Measured values as given in patent US6503552B1, “Adding flavidin to a composition as an anti-oxidant” (Council of Scientific and Industrial Research, priority 2000, dated 2003).

Experiment: antioxidant activity in β-carotene-linoleate system (bleaching of β-carotene)
Type: biochemical
Conditions: for bleaching time of β-carotene: different concentrations, controls (no additive) decolorized within 120 min; for antioxidant activity: 120 min incubation at 50° C.
Method: In another embodiment of the present invention, evaluation of the antioxidant activity of flavidin has been carried out employing the procedure of Hiddgi et. al. (Phytochem, 37, 1585, 1994) with minor modifications said method comprises the following steps: […]
i) preparing assay reagent of β-carotene in chloroform by mixing linoleic acid and 200 mg of Tween 40 (polyoxyethylene sorbitan monopalmitate), ii) warming polyoxyethylene sorbitan monopalmitate (Tween 40) at a temperature of about 50° C. in a water bath, iii) removing chloroform from assay reagent at a temperature of about 40° C. under vacuum using a rotary evaporator, iv) diluting the resulting solution with triple distilled water and mixing the resulting emulsion well for one minute, v) further diluting the resulting emulsion with oxygenated water, vi) transferring aliquots of the reagent as in step (v) into tubes containing 0.2 ml of desired amount of antioxidant in ethanol, vii) keeping a control of 0.2 ml of ethanol and 4 ml of reagent as prepared in step (v). viii) immediately taking optical density of all sample (t=0) and also taking the O.D at 15 min. interval for 2 hr. (t=120), ix) incubating the tubes in water bath at a temperature of about 50° C. between each measurement taken, and x) measuring the color till the color of β-carotene disappears.
The procedure of Hiddgo et al., (Phytochemistry, 37, 1585, 1994) was followed for testing of antioxidant activity of the flavidin with minor modification. The assay reagent was prepared as follows: 0.2 mg of β-carotene in 0.5 ml of chloroform was added to 20 mg of linoleic acid and 200 mg of Tween 40 (polyoxyethylene sorbitan monopalmitate) were mixed. Tween 40 was warmed in a water bath at 50° C. before use. The chloroform was removed at 40° C. under vacuum using a rotary evaporator. The resulting solution was immediately diluted with 10 ml of triple-distilled water and the emulsion was mixed well for 1 min. The emulsion was further diluted with 40 ml oxygenated water. Four ml aliquots of this reagent were transferred into different tubes containing 0.2 ml of the desired amount of antioxidant in ethanol. A control consisting of 0.2 ml of ethanol and 4 ml of emulsion was prepared. Optical density of all samples were taken immediately (t=0) and at 15 min intervals for 2 h (t=120). The tubes were placed in a water bath at 50° C. between measurements. All determinations were preformed in duplicate. Measurement of color was recorded until the color of β-carotene disappears.
The antioxidant activity (AA) of the isolated compound was evaluated in terms of bleaching the β-carotene using the formula of Hiddgo et al., (Phytochemistry, 37, 1585, 1994). AA=100[1−(Ao−At)/(A^oo−A^ot)] where Ao and A^o are the absorbance measured at the beginning of the incubation for flavidin and the control, respectively, and At and A^ot are the absorbance measured in the presence and absence of the flavidin after incubation for 120 min.

Row | SMILES | bleaching time of β-carotene | antioxidant activity (10 ppm) [%] | antioxidant activity (25 ppm) [%] | antioxidant activity (50 ppm, maximum activity) [%]
1 | COc1ccc(O)c(C(C)(C)C)c1 [BHA, butylated hydroxy anisole, reference compound] | enhanced | – | – | –
2 | Oc1cc2c3c(c1)COc1cc(O)cc(c1-3)CC2 [flavidin, 2,7-dihydroxy 9,10-dihydrophenanthro-4,5 bcd-pyran] | enhanced | 68.5 | 79 | 90.2
